Data reported in patent publication US20230081426A1, “COMPOUNDS AND METHODS FOR KRAS MODULATION AND INDICATIONS THEREFOR” (Plexxikon Inc., priority 2020, published 2023).

Target: T1, G12D-mutant human KRAS (amino acid residues 1-188) (Homo sapiens, UniProt P01116, G12D)
T1 construct: G12D or G12C-mutant human KRAS (amino acid residues 1-188) with FLAG tag; made in house; host or cells: E. coli
Assay: KRAS Binding Disruption Assay (AlphaScreen; biotinylated KRpep-2d analogue or RAF1-RBD), G12D
Details: KRAS G12D; geometric mean; read-out: KRAS GMean IC50 (uM) MUTATION: G12D
Procedure: Compound binding disrupts the interaction of KRpep-2d or RAF1-RBD with KRAS, leading to a decrease in Alpha signal.
All assay components were prepared in 20 mM HEPES (pH 7.5), 100 mM NaCl, 5 mM MgCl2, 0.01% Tween-20, and 0.01% BSA. Biotinylated analogues of KRpep-2d were custom synthesized. The binding disruption assays were performed using 5-20 nM of mutant KRAS and 5-20 nM of either biotinylated KRpep-2d analogue or RAF1-RBD. 19 μL of KRAS protein and 4 μL of biotinylated KRpep-2d or RAF1-RBD were added to the wells of a 384-well plate containing 1 μL of various concentrations of test compound or DMSO vehicle. 16 wells containing KRAS, biotinylated KRpep-2d or RAF1-RBD, and 5% DMSO served as high controls. 16 wells containing KRAS only and 5% DMSO served as low controls. Binding reactions were incubated for 1 hour at 25° C., then Anti-Flag Acceptor and Streptavidin Donor Alpha beads were added at a final concentration of 10 μg/mL for an additional hour at room temperature. Alpha signal was read out on a Perkin Elmer Envision HTS instrument. The percentage inhibition at individual compound concentrations relative to high and low controls was calculated. The data were analyzed by using nonlinear regression to generate IC50 values.

T1 sequence (P01116 1-188 isoform P01116-2 G12D): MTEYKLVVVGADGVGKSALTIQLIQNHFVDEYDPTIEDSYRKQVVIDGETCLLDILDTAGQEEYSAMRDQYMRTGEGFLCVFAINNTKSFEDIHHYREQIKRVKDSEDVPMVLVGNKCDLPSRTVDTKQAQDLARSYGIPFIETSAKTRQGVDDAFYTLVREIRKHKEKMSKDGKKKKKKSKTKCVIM

IC50, 10 to 100 µM:
CN(C)CCN(C)c1nc(N2C[C@H]3CC[C@@H](C2)N3)c2ccc(-c3cc(O)cc4ccccc34)cc2n1 [P-0057, 4-(4-((1R,5S)-3,8-diazabicyclo[3.2.1]octan-3-yl)-2-((2-(dimethylamino)ethyl)(methyl)amino)quinazolin-7-yl)naphthalen-2-ol]
CN(C)C(=O)COc1nc(N2C[C@H]3CC[C@@H](C2)N3)c2ccc(-c3cc(O)cc4ccccc34)cc2n1 [P-0070, 2-((4-((1R,5S)-3,8-diazabicyclo[3.2.1]octan-3-yl)-7-(3-hydroxynaphthalen-1-yl)quinazolin-2-yl)oxy)-N,N-dimethylacetamide]
CNCCOc1nc(N2C[C@H]3CC[C@@H](C2)N3)c2ccc(-c3cc(O)cc4ccccc34)cc2n1 [P-0083, 4-(4-((1R,5S)-3,8-diazabicyclo[3.2.1]octan-3-yl)-2-(2-(methylamino)ethoxy)quinazolin-7-yl)naphthalen-2-ol]
CN1CCC[C@H]1COc1nc(N2C[C@H]3CC[C@@H](C2)N3C(=O)c2n[nH]c(=O)[nH]2)c2ccc(-c3cc(O)cc4ccccc34)cc2n1 [P-0113, 5-((1R,5S)-3-(7-(3-hydroxynaphthalen-1-yl)-2-(((S)-1-methylpyrrolidin-2-yl)methoxy)quinazolin-4-yl)-3,8-diazabicyclo[3.2.1]octane-8-carbonyl)-2,4-dihydro-3H-1,2,4-triazol-3-one]

IC50, 0.0001 to 10 µM:
CN1CCC[C@H]1COc1nc(N2C[C@H]3CC[C@@H](C2)N3)c2cnc(-c3cc(O)cc4ccccc34)cc2n1 [P-0004, 4-(4-((1R,5S)-3,8-diazabicyclo[3.2.1]octan-3-yl)-2-(((S)-1-methylpyrrolidin-2-yl)methoxy)pyrido[4,3-d]pyrimidin-7-yl)naphthalen-2-ol]
CN1CCC[C@H]1COc1nc(N2C[C@@H]3CC[C@H]2CN3)c2ccc(-c3cc(O)cc4ccccc34)cc2n1 [P-0011, 4-(4-((1S,4S)-2,5-diazabicyclo[2.2.2]octan-2-yl)-2-(((S)-1-methylpyrrolidin-2-yl)methoxy)quinazolin-7-yl)naphthalen-2-ol]
CN1CCC[C@H]1COc1nc(N2C[C@H]3CC[C@@H]2CN3)c2ccc(-c3cc(O)cc4ccccc34)cc2n1 [P-0012, 4-(4-((1R,4R)-2,5-diazabicyclo[2.2.2]octan-2-yl)-2-(((S)-1-methylpyrrolidin-2-yl)methoxy)quinazolin-7-yl)naphthalen-2-ol]
Cc1c(-c2cc(O)cc3ccccc23)ccc2c(N3C[C@H]4CC[C@@H](C3)N4)nc(OC[C@@H]3CCCN3C)nc12 [P-0014, 4-(4-((1R,5S)-3,8-diazabicyclo[3.2.1]octan-3-yl)-8-methyl-2-(((S)-1-methylpyrrolidin-2-yl)methoxy)quinazolin-7-yl)naphthalen-2-ol]
Oc1cc(-c2ccc3c(N4C[C@H]5CC[C@@H](C4)N5Cc4ccccc4)nc(OCC45CCCN4CCC5)nc3c2)c2ccccc2c1 [P-0018, 4-(4-((1R,5S)-8-benzyl-3,8-diazabicyclo[3.2.1]octan-3-yl)-2-((tetrahydro-1H-pyrrolizin-7a(5H)-yl)methoxy)quinazolin-7-yl)naphthalen-2-ol]
CN1CCC[C@H]1COc1nc(N2C[C@H]3CC[C@@H](C2)N3)c2cc(Cl)c(-c3cc(O)cc4ccccc34)c(OCC(F)(F)F)c2n1 [P-0033, 4-(4-((1R,5S)-3,8-diazabicyclo[3.2.1]octan-3-yl)-6-chloro-2-(((S)-1-methylpyrrolidin-2-yl)methoxy)-8-(2,2,2-trifluoroethoxy)quinazolin-7-yl)naphthalen-2-ol]
CO[C@@H]1CN(C)C[C@H]1Oc1nc(N2C[C@H]3CC[C@@H](C2)N3)c2cc(Cl)c(-c3cc(O)cc4ccccc34)c(F)c2n1 [P-0035, 4-(4-((1R,5S)-3,8-diazabicyclo[3.2.1]octan-3-yl)-6-chloro-8-fluoro-2-(((3R,4R)-4-methoxy-1-methylpyrrolidin-3-yl)oxy)quinazolin-7-yl)naphthalen-2-ol]
CN1CCC[C@H]1COc1nc(N2CC3COCC(C2)N3)c2cc(Cl)c(-c3cc(O)cc4ccccc34)c(F)c2n1 [P-0040, 4-(4-(3-oxa-7,9-diazabicyclo[3.3.1]nonan-7-yl)-6-chloro-8-fluoro-2-(((S)-1-methylpyrrolidin-2-yl)methoxy)quinazolin-7-yl)naphthalen-2-ol]
CN1CCC[C@H]1COc1nc(N2C[C@H]3C[C@@H]2CN3)c2cc(Cl)c(-c3cc(O)cc4ccccc34)c(F)c2n1 [P-0041, 4-(4-((1R,4R)-2,5-diazabicyclo[2.2.1]heptan-2-yl)-6-chloro-8-fluoro-2-(((S)-1-methylpyrrolidin-2-yl)methoxy)quinazolin-7-yl)naphthalen-2-ol]
CN1CCC[C@H]1COc1nc(N2C[C@H]3CC[C@@H](C2)N3)c2cc(Cl)c(-c3cc(O)cc4ccccc34)nc2n1 [P-0045, 4-(4-((1R,5S)-3,8-diazabicyclo[3.2.1]octan-3-yl)-6-chloro-2-(((S)-1-methylpyrrolidin-2-yl)methoxy)pyrido[2,3-d]pyrimidin-7-yl)naphthalen-2-ol]
CN1CCC[C@H]1COc1nc(N2C[C@H]3C[C@@H]2CN3)c2ccc(-c3cc(O)cc4ccccc34)cc2n1 [P-0051, 4-(4-((1R,4R)-2,5-diazabicyclo[2.2.1]heptan-2-yl)-2-(((S)-1-methylpyrrolidin-2-yl)methoxy)quinazolin-7-yl)naphthalen-2-ol]
CN1CCC[C@H]1COc1nc(N2C[C@@H]3C[C@H]2CN3)c2ccc(-c3cc(O)cc4ccccc34)cc2n1 [P-0052, 4-(4-((1S,4S)-2,5-diazabicyclo[2.2.1]heptan-2-yl)-2-(((S)-1-methylpyrrolidin-2-yl)methoxy)quinazolin-7-yl)naphthalen-2-ol]
CN1CC[C@@H](COc2nc(N3C[C@H]4CC[C@@H](C3)N4)c3ccc(-c4cc(O)cc5ccccc45)cc3n2)C1 [P-0069, 4-(4-((1R,5S)-3,8-diazabicyclo[3.2.1]octan-3-yl)-2-(((R)-1-methylpyrrolidin-3-yl)methoxy)quinazolin-7-yl)naphthalen-2-ol]
CN(C)C(=O)CCOc1nc(N2C[C@H]3CC[C@@H](C2)N3)c2ccc(-c3cc(O)cc4ccccc34)cc2n1 [P-0071, 3-((4-((1R,5S)-3,8-diazabicyclo[3.2.1]octan-3-yl)-7-(3-hydroxynaphthalen-1-yl)quinazolin-2-yl)oxy)-N,N-dimethylpropanamide]
CN(C)CC(CN)Oc1nc(N2C[C@H]3CC[C@@H](C2)N3)c2ccc(-c3cc(O)cc4ccccc34)cc2n1 (stereo partly drawn) [P-0074, 4-(2-((1-amino-3-(dimethylamino)propan-2-yl)oxy)-4-((1R,5S)-3,8-diazabicyclo[3.2.1]octan-3-yl)quinazolin-7-yl)naphthalen-2-ol]
Oc1cc(-c2ccc3c(N4C[C@H]5CC[C@@H](C4)N5Cc4ccccn4)nc(OCC45CCCN4CCC5)nc3c2)c2ccccc2c1 [P-0076, 4-(4-((1R,5S)-8-(pyridin-2-ylmethyl)-3,8-diazabicyclo[3.2.1]octan-3-yl)-2-((tetrahydro-1H-pyrrolizin-7a(5H)-yl)methoxy)quinazolin-7-yl)naphthalen-2-ol]
Oc1cc(-c2ccc3c(N4C[C@H]5CC[C@@H](C4)N5)nc(OCC4CCOC4)nc3c2)c2ccccc2c1 (stereo partly drawn) [P-0081, 4-(4-((1R,5S)-3,8-diazabicyclo[3.2.1]octan-3-yl)-2-((tetrahydrofuran-3-yl)methoxy)quinazolin-7-yl)naphthalen-2-ol]
Oc1cc(-c2ccc3c(N4C[C@H]5CC[C@@H](C4)N5)nc(OCC4CCCO4)nc3c2)c2ccccc2c1 (stereo partly drawn) [P-0082, 4-(4-((1R,5S)-3,8-diazabicyclo[3.2.1]octan-3-yl)-2-((tetrahydrofuran-2-yl)methoxy)quinazolin-7-yl)naphthalen-2-ol]
CN1CCOC[C@H]1COc1nc(N2C[C@H]3CC[C@@H](C2)N3)c2ccc(-c3cc(O)cc4ccccc34)cc2n1 [P-0084, 4-(4-((1R,5S)-3,8-diazabicyclo[3.2.1]octan-3-yl)-2-(((S)-4-methylmorpholin-3-yl)methoxy)quinazolin-7-yl)naphthalen-2-ol]
CN1CCC1COc1nc(N2C[C@H]3CC[C@@H](C2)N3)c2ccc(-c3cc(O)cc4ccccc34)cc2n1 (stereo partly drawn) [P-0086, 4-(4-((1R,5S)-3,8-diazabicyclo[3.2.1]octan-3-yl)-2-((1-methylazetidin-2-yl)methoxy)quinazolin-7-yl)naphthalen-2-ol]

Same assay, conditions: Table 3; geometric mean; bridged vs non-bridged R1; read-out: KRAS GMean IC50 (uM) MUTATION: G12D

IC50, 1.11 µM:
CN1CCC[C@H]1COc1nc(N2CCNCC2)c2cc(Cl)c(-c3cc(O)cc4ccccc34)c(F)c2n1 [Non-bridged version of P-0001, reference compound]

Same assay, conditions: Table 4; geometric mean; comparison with compounds of WO 2017/172979; read-out: KRAS GMean IC50 (uM) MUTATION: G12D

IC50, 3.06 µM:
CC1CN(c2nc(OCCCN3CCC(F)(F)C3)nc3c(F)c(-c4cc(O)cc5ccccc45)c(Cl)cc23)C(C)CN1 (stereo not drawn) [Compound 36 in WO 2017/172979, reference compound]

IC50, 16.5 µM:
CN(C)CCCOc1nc(N2CCN(C)CC2)c2cc(Cl)c(-c3cc(O)cc4ccccc34)c(F)c2n1 [Compound 149 in WO 2017/172979, reference compound]
